Measured values published in PubChem BioAssay AID2305 (GlaxoSmithKline (GSK), 2010).
Values joined by “and” are separate entries in the source; they are usually repeats but may differ in a detail not shown here. Equal entries are not always repeated. Where a SMILES comes first, the peptide text is derived from it. The star is where a group is joined. Boc = CC(C)(C)OC(=O)*

Tested on: P. falciparum 3D7 growth, pLDH absorbance
Assay: blood-stage malaria parasite growth potency – strain 3D7, dose response (AID 2305)

Cc1cc(Nc2ccc(O)cc2)nc2cc(O)ccc12
IC50: 760 nM

CCCC(CNCc1cccc(SC(F)(F)F)c1)CNc1cc(=O)c2ccccc2[nH]1 (stereo not drawn)
IC50: 710 nM

CN1CCN(Cc2nc(-c3ccc4c(Nc5ccc(F)c(O)c5)ccnc4c3)cs2)CC1
IC50: 170 nM

COc1ccc(Nc2ccnc3cc(Cl)ccc23)cc1OC
IC50: 1120 nM

CC[C@H]1CN2CC[C@@H]1C[C@H]2[C@H](O)c1cc(N2CCC(C(N)=O)CC2)nc2ccc(OC)cc12
IC50: 770 nM

CCC1(C)CC(CCNCc2ccccc2O)(c2ccccc2OC)CCO1 (stereo not drawn)
IC50: 720 nM

O=C(Nc1ccc2c(c1)OCCO2)c1cc(-c2cccnc2)nc2ccc(Cl)cc12
IC50: 710 nM

O=C(Nc1ccccc1O)c1ccc(Oc2cccc(C(=O)Nc3ccccc3O)c2)cc1
IC50: 800 nM

OC(c1ccc(Cl)cc1)(c1ccc(Cl)cc1)C(c1ccc(Cl)cc1)n1ccnc1 (stereo not drawn)
IC50: 860 nM

O=C(/C=C/c1ccc(Cl)c(Cl)c1)NCCCCCN1CCC(NS(=O)(=O)c2cc(Cl)cc(Cl)c2)CC1
IC50: 1240 nM

COc1ccc2nccc([C@@H](O)CN3CCC(NC(=O)C(c4cc5ccccc5s4)N4CC(C)OC(C)C4)CC3)c2c1 (stereo partly drawn)
IC50: 980 nM

O=S(=O)(NCCCN1CCOCC1)c1ccc2nccc(Nc3ccc(Oc4ccccc4)cc3)c2c1
IC50: 850 nM

Cc1ccccc1C1CCN(C2CCC(NC(=O)/C=C/c3ccc(F)c(F)c3)CC2)CC1 (stereo not drawn)
IC50: 950 nM

CCCNC(=O)c1cncc(-c2ccc(CNCCCc3ccccc3)cc2)c1
IC50: 690 nM

COc1ccc(C=CC(=O)Nc2ccc(N3CCCC3)cc2)cc1
IC50: 1280 nM

Cc1[nH]c(C)c(-c2ccc(Oc3cccc(C(F)(F)F)c3)cc2)c(=O)c1Br
IC50: 10 nM

COC(=O)CC[C@H](NC(=O)[C@H](C)NC(=O)OC(C)(C)C)C(=O)OC (Boc-Ala-Glu(OMe)-OMe)
IC50: 820 nM

CC(=O)Oc1ccc(C(=O)Oc2ccccc2C#CC#N)cc1OC(C)=O
IC50: 320 nM

O=C(/C=C/c1ccc(Cl)c(Cl)c1)NCCCCCN1CCC(NC(=O)c2cccc(Cl)c2)CC1
IC50: 690 nM

O=C(Nc1ccc(OC2CCN(Cc3ccco3)C2)c(Cl)c1)c1ccc2ncccc2c1 (stereo not drawn)
IC50: 1080 nM

CNC(=O)/C=C/c1cc(NC(=O)Nc2ccnc3c(Br)cccc23)ccc1OC
IC50: 860 nM

CC(C)(C)C1CCC(CC2=C(C(=O)O)c3ccccc3C2=O)CC1 (stereo not drawn)
IC50: 1100 nM

CC(=O)Nc1cc(C(=O)Nc2cccc(-c3cccc(-c4nc5ccc(C(F)(F)F)cc5[nH]4)c3)c2)ccc1C
IC50: 220 nM

Cc1cccnc1CNc1nccc2c(C)c(C)[nH]c12
IC50: 850 nM

O=C(N[C@@H](CC1CCCCC1)C(=O)NCc1cccc2ccccc12)c1ccc(O)c(-c2ccc(Cl)c(Cl)c2)c1
IC50: 220 nM

Cc1cc(O)c(CNC2CCCCC2)cc1C
IC50: 1050 nM

CCOc1ccc(C2CCN(CCCCNC(=O)c3ccc(NC(=O)c4ccc(Cl)cc4)cc3)CC2)c(Cl)c1
IC50: 730 nM

CCOc1ccc2c(NN=Cc3ccc(F)cc3)cc(C)nc2c1
IC50: 580 nM

CNCc1ccc(-c2ccc3ccnc(N)c3c2)cc1
IC50: 260 nM

COc1ccc2nccc([C@@H](O)CN3CCC(NC(=O)c4cc5c(Cl)cc(Cl)cc5[nH]4)CC3)c2c1
IC50: 230 nM

COc1ccc(C2c3ccccc3-c3nc(N)nc(N)c3C2C)cc1 (stereo not drawn)
IC50: 240 nM

Cc1c(C)n(C2CCCC2)c2ncnc(OC3CCN(CC(=O)NCC4CC4)CC3)c12
IC50: 890 nM

O=C(NCCCCN1CCC(c2ccc3c(c2OCCO)CCCC3)CC1)c1ccc2oc(-c3ccc(C(F)(F)F)cc3)cc2c1
IC50: 340 nM

CC(C)(C)c1nn(-c2ccccc2)c2[nH]c(=O)c(CNCCc3ccccc3)cc12
IC50: 870 nM

CCCC(=O)Nc1ccc(OCCCN(Cc2ccccc2C(F)(F)F)c2ccc(C#N)c(C(F)(F)F)c2)cc1
IC50: 930 nM

CCOC(=O)c1c(CN2CCCC2)n(-c2ccccc2)c2cc(Br)c(O)cc12
IC50: 1010 nM

O=C(Nc1ccc(S(=O)(=O)N2CCCCC2)cc1)c1cc(-c2ccccc2O)n[nH]1
IC50: 850 nM

O=C(Nc1ccc(C(F)(F)F)cc1)NC1CCN(c2ccnc3ccccc23)C1 (stereo not drawn)
IC50: 90 nM

COC(=O)C(c1ccc(NC(=O)[C@H](CC(C)C)NC(=O)OC(C)(C)C)cc1)c1ccc(NC(=O)[C@H](CC(C)C)NC(=O)OC(C)(C)C)cc1
IC50: 350 nM

CC1CN(Cc2ccc(-c3cccc(-c4nc5ccc(F)cc5[nH]4)c3)cc2)CC(C)O1 (stereo not drawn)
IC50: 920 nM

Cn1ncc2c3c(CCN4CCC(NCc5ccc6c(c5)NC(=O)CO6)CC4)c(Cl)cnc3ccc21
IC50: 490 nM

O=C(C=Cc1ccc(Cl)c(Cl)c1)NCCCCCN1CCCC(CCCNS(=O)(=O)c2cccc3cccnc23)C1 (stereo not drawn)
IC50: 1000 nM

O=C(Nc1cccc(F)c1)N[C@H]1CCN(CCCCCNC(=O)[C@@H]2C[C@H]2c2ccc(Cl)c(Cl)c2)C1
IC50: 990 nM

O=C(Nc1ccc(-c2nc3ccccc3[nH]2)cc1)C1CCCN(CC2CC2)C1 (stereo not drawn)
IC50: 950 nM

O=C(Nc1ccccc1C(F)(F)F)NC1CCC(CN2CCC(c3c[nH]c4ccccc34)CC2)CC1 (stereo not drawn)
IC50: 950 nM and 780 nM

Cc1nc2nc(N)nc(N)c2c(C)c1Cc1ccc(C(N)=O)cc1
IC50: 530 nM

N#Cc1ccc(NC(=O)c2ccc(C(=O)NCCCCN3CCC(c4ccc5c(c4OCCOC4CCCCO4)CCCC5)CC3)cc2)cc1 (stereo not drawn)
IC50: 580 nM

CCC(C)(C)c1ccc(N2C(N)=NC(N)=NC2(C)C)cc1
IC50: 10 nM

O=C(NC1CCC(N2CCC(c3ccccc3C(F)(F)F)CC2)CC1)c1cc2ccccc2[nH]1 (stereo not drawn)
IC50: 520 nM

COc1ccc(Nc2nccc(N3CCC(NC(=O)c4cccc(C#N)c4)C3)n2)cc1 (stereo not drawn)
IC50: 820 nM

O=c1cc(NCCCNCc2cc(Br)ccc2F)[nH]c2ccccc12
IC50: 850 nM

O=C(Nc1ccc(-c2ccccc2)cc1)Nc1cccc(Cn2nc(Cl)c(N3CCNCC3)cc2=O)c1
IC50: 370 nM

O=C(NCC1CN(Cc2ccc(N3CCCC3)o2)CCCO1)c1ccc2c(c1)OCO2 (stereo not drawn)
IC50: 840 nM

c1ccc(CCNc2nc(NCC(c3ccccc3)c3ccccc3)c3[nH]cnc3n2)cc1
IC50: 620 nM

CS(=O)(=O)c1ccc(-c2cc(C(F)(F)F)nc(N[C@@H]3CCCC[C@H]3OCc3ccccc3)n2)cc1
IC50: 60 nM

CC1(CCc2ccccc2)N=C(Nc2ccc(Cl)cc2)N=C(N)C1c1ccc(Cl)c(Cl)c1 (stereo not drawn)
IC50: 220 nM

CN1CCCC1CCNCc1ccc(-c2ccc(CNCCc3ccccc3)cn2)cc1 (stereo not drawn)
IC50: 1110 nM

COCCN1CCN(Cc2ccc(-c3cccc(-c4nc5ccccc5[nH]4)c3)cc2)CC1
IC50: 1110 nM

O=C(CN1CCCCC1)Nc1ccc(Nc2nccc(NCC(O)c3ccccc3)n2)cc1 (stereo not drawn)
IC50: 580 nM

NC(=NCCCCCCCCN=C(N)Nc1ccc(Cl)cc1)Nc1ccc(Cl)cc1
IC50: 590 nM

O=C(Nc1cccc(OCCN2CCCC2)c1)Nc1ccc(Cl)c(Cl)c1
IC50: 770 nM

CCn1c(SCC(=O)Nc2cc(C(F)(F)F)ccc2Cl)nc2ccccc2c1=O
IC50: 400 nM

COc1ccc(CC(C)NCC(O)c2cccc(Cl)c2F)cc1 (stereo not drawn)
IC50: 1080 nM

COc1ccc2nc(C)cc(Nc3ccc(Oc4ccc(Cl)cc4)c(Cl)c3)c2c1
IC50: 190 nM

Cc1cccnc1Nc1nc(-c2ccccn2)cs1
IC50: 690 nM

COc1cc2nc(NCc3cccc(CNC(=O)c4ccc(-c5ccc(C(C)=O)cc5)cc4)c3)nc(N)c2cc1OC
IC50: 120 nM

CCOc1ccc2nc(C)cc(NN=Cc3cccnc3)c2c1
IC50: 150 nM

O=C(c1ccccc1F)N(Cc1ccc(Cl)cc1)c1ccccn1
IC50: 1020 nM

CN1CCN(c2cc3c(cc2Cl)CCN3C(=O)Nc2ccc(NC(=O)c3ccc(C(F)(F)F)cc3)cc2)CC1
IC50: 510 nM

Cc1noc(C)c1C(=O)N1CCCC(c2[nH]c3c(C)cccc3c2-c2ccncc2)C1 (stereo not drawn)
IC50: 840 nM

Cn1c(O)c(N=NC(=S)N2CCOCC2)c2ccccc21
IC50: 900 nM

COc1ccc(F)cc1-c1ccccc1CNC(=O)c1cnn(-c2ccc([N+](=O)[O-])cc2)c1C(F)(F)F
IC50: 600 nM

Cc1[nH]c(C)c(-c2ccc(-c3ccc(C(F)F)cc3)nc2)c(=O)c1Cl
IC50: 240 nM

CCn1ncc2c(N3CCCC3=O)cc(C(=O)N[C@@H](Cc3ccccc3)[C@H](O)CNC(C)(C)c3cccc(OC)c3)cc21
IC50: 110 nM

COc1cc(Br)c(NC(=O)Nc2ccc(C(F)(F)F)c(O[C@@H]3CCN(C)C3)c2)cc1OC
IC50: 630 nM

CC(C)c1ccc(S(=O)(=O)Nc2cccc(CCN3CCC(N4CCCCC4)CC3)c2)cc1
IC50: 1120 nM

CN1CCN(Cc2ccc(-c3ccc4c(Nc5ccc(Cl)cc5F)ccnc4c3)o2)CC1
IC50: 150 nM

N#CC1(c2ccccc2)CCN(c2nc(NCCCN3CCCC3=O)nc(N3CCCC4CCCCC43)n2)CC1 (stereo not drawn)
IC50: 860 nM

Cc1cc(N)ncc1-c1ccc(NC(=O)Nc2cc(C(F)(F)F)ccc2F)cc1
IC50: 700 nM

CC(C)N=C(N)NN=Cc1ccc(Cl)c(Cl)c1
IC50: 530 nM

Cc1cc(C2CCN(CCCCNC(=O)c3ccc(-c4ccc(C#N)cc4)cc3)CC2)c(C)cc1OCCO
IC50: 810 nM

CC(O)C1CCCCN1C(=O)c1ccc(-c2cccc(-c3nc4ccc(F)cc4[nH]3)c2)cc1 (stereo not drawn)
IC50: 540 nM

O=C(N[C@H]1CCN(Cc2ccc(OCCN3CCCC3)c3ccccc23)C1)c1ccc(Cl)c(Cl)c1
IC50: 750 nM

O=C(Nc1cc(F)cc(F)c1)N[C@H]1CCN(CCCCCNC(=O)[C@@H]2C[C@H]2c2ccc(Cl)c(Cl)c2)C1
IC50: 1080 nM

CCCc1cc(Cc2cnc(N)nc2N)c2cccnc2c1OC
IC50: 670 nM

O=C1COc2ccc3ccccc3c21
IC50: 700 nM

Cn1c(=N)n(CC(=O)N2CCc3ccc(Cl)cc3C2Cc2ccc(Cl)c(Cl)c2)c2ccccc21 (stereo not drawn)
IC50: 870 nM

Cc1cccc2[nH]c(-c3ccc(-c4cccc(NC(=O)Nc5ccccc5)c4)cc3)nc12
IC50: 720 nM

COc1ccccc1-n1ccnc1SCC(=O)Nc1cccc(C(F)(F)F)c1
IC50: 160 nM

Oc1ccc(C=NNC(=S)Nc2cccc3ccccc23)c(O)c1
IC50: 1040 nM

CS(=O)(=O)Nc1ccc(OCCCCCCOc2ccc(NS(C)(=O)=O)cc2)cc1
IC50: 490 nM

CCc1ccc(CN2CCC(NC(=O)c3cc(-c4ccc(N(C)C)cc4)cs3)C2)cc1 (stereo not drawn)
IC50: 1440 nM

Cc1cccc2[nH]c(-c3cccc(-c4cccc(NC(=O)CNC(=O)c5ccc(O)cc5)c4)c3)nc12
IC50: 990 nM

Cc1ccc(NC(=O)C(C)Sc2n[nH]c(-c3ccccc3Br)n2)cc1 (stereo not drawn)
IC50: 1090 nM

CN(C)c1ccc(-c2csc(C(=O)NC3CCCCN(Cc4ccc(C(C)(C)C)cc4)C3)c2)cc1 (stereo not drawn)
IC50: 1110 nM

CCNc1cc(C(=O)N[C@@H](Cc2ccccc2)[C@H](O)CNC(C)CCCC(C)C)cc(N2CCCS2(=O)=O)c1 (stereo partly drawn)
IC50: 220 nM

OC(COc1ccccc1-c1nc2ccccc2o1)CN1CCCN(CCc2ccccc2)CC1 (stereo not drawn)
IC50: 760 nM

O=C(NC1CCCCC1)N(Cc1ccccc1-c1ccc(CNCCc2ccccc2)cc1)C1CCN(Cc2ccccc2)CC1
IC50: 930 nM
